This test concerns the target T1, GFRα1-RET (Homo sapiens, UniProt P56159).
T1 construct: expressed in transfected cells; host or cells: MG87 murine fibroblasts, stably transfected
T1 sequence (P56159 25-429 limits assumed): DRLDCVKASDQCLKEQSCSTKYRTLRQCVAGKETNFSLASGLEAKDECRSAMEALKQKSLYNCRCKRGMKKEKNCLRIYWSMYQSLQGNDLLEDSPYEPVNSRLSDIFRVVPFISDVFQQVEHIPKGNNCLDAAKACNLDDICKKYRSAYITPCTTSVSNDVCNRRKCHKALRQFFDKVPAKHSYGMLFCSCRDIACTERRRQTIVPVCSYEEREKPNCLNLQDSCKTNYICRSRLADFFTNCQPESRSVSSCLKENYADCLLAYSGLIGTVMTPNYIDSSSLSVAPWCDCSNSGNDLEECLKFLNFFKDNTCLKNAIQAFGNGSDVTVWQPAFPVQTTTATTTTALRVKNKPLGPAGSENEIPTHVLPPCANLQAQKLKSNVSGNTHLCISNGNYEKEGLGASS
Kind of test: Elk1 reporter-gene (luciferase) assay in cells expressing GFRα1-RET. As to conditions: MG87 murine fibroblasts stably transfected with PathDetect Elk-1, GFRα1 and RET, 6 concentrations, agonist/activator activity. The class given is cell-based. The method, then:
For ECso determination, a dose-response test was performed using 6 concentrations of each tested compound. Dose-response curves were fitted using the sigmoidal dose-response (variable slope) analysis in GraphPad Prism program (Graph Pad Inc) and ECso of agonist/activator activity was calculated. Dose-response experiments were all performed in duplicate, two times independently.
As a reminder, the EC50 is the concentration at which the effect is half-maximal. Read a high EC50 as weaker potency. Molecule `COc1ccc(S(=O)(=O)N2CCC(Oc3ccccc3)C2)cc1N1C2CCC1CN(C(=O)c1ccc(F)cc1Cl)C2` (racemic) [compound 126, (2-chloro-4-fluoro-phenyl)-[(1S,5R)-8-[2-methoxy-5-[(3SR)-3-phenoxypyrrolidin-1-yl]sulfonyl-phenyl]-3,8-diazabicyclo[3.2.1]octan-3-yl]methanone] gave an EC50 of less than 1000 nM.

Regarding `COc1ccc(S(=O)(=O)N2CCC(N(C)c3ccccc3)C2)cc1N1C2CCC1CN(C(=O)c1ccc(F)cc1Cl)C2` (racemic) [compound 127, (2-chloro-4-fluoro-phenyl)-[(1S,5R)-8-[2-methoxy-5-[(3SR)-3-(N-methylanilino)pyrrolidin-1-yl]sulfonyl-phenyl]-3,8-diazabicyclo[3.2.1]octan-3-yl]methanone], the EC50 is less than 1000 nM. On to `CC(C)NS(=O)(=O)c1cc(Cl)c(O)c(N2[C@@H]3CC[C@H]2CN(C(=O)c2ccc(F)cc2Cl)C3)c1` [compound 100], for which the EC50 is less than 1000 nM.

In turn, `CC(C)(C)NS(=O)(=O)c1cc(N2[C@@H]3CC[C@H]2CN(C(=O)c2ccc(F)cc2Cl)C3)c(O)c(C(F)(F)F)c1` [compound 089] had an EC50 of 1000 to 10000 nM. `Cc1cc(S(=O)(=O)N(C)CC2CC2)cc(N2[C@@H]3CC[C@H]2CN(C(=O)c2ccc(F)cc2Cl)C3)c1O` [compound 092, 3-[(1S,5R)-3-(2-chloro-4-fluoro-benzoyl)-3,8-diazabicyclo[3.2.1]octan-8-yl]-N-(cyclopropylmethyl)-4-hydroxy-N,5-dimethyl-benzenesulfonamide] came in with an EC50 of less than 1000 nM.

On to `CCCN(C)S(=O)(=O)c1cccc(N2[C@@H]3CC[C@H]2CN(C(=O)c2ccc(F)cc2Cl)C3)c1` [compound 028, 3-[(1S,5R)-3-(2-chloro-4-fluoro-benzoyl)-3,8-diazabicyclo[3.2.1]octan-8-yl]-N-methyl-N-propyl-benzenesulfonamide], for which the EC50 is 1000 to 10000 nM.

`CCCN(C)S(=O)(=O)c1ccc(OC)c(N2CCN(C(=O)c3ccc(F)cc3C(F)(F)F)CC2CC)c1` (racemic) [compound 017, 4-methoxy-N-methyl-N-propyl-3-[rac-(2S)-2-ethyl-4-[4-fluoro-2-(trifluoromethyl)benzoyl]piperazin-1-yl]benzenesulfonamide]: the EC50 is 10000 to 50000 nM. As for `CCCN(C)S(=O)(=O)c1ccc(OC)c(N2CCN(C(=O)c3ccc(F)cc3C(F)(F)F)CC2C(F)(F)F)c1` (racemic) [compound 016, 4-methoxy-N-methyl-N-propyl-3-[rac-(2S)-4-[4-fluoro-2-(trifluoromethyl)benzoyl]-2-(trifluoromethyl)piperazin-1-yl]benzenesulfonamide], the EC50 was in the range of 1000 to 10000 nM. Consider `O=C(c1ccc(F)cc1Cl)N1C[C@H]2CC[C@@H](C1)N2c1cc(S(=O)(=O)N2CCN(CCc3ccc(F)cc3)CC2)cc2c1OCC2` [compound 059, (2-chloro-4-fluoro-phenyl)-[(1S,5R)-8-[5-[4-[2-(4-fluorophenyl)ethyl]piperazin-1-yl]sulfonyl-2,3-dihydrobenzofuran-7-yl]-3,8-diazabicyclo[3.2.1]octan-3-yl]methanone], for which the EC50 is less than 1000 nM. Molecule `Cn1cnc(-c2ccc(S(=O)(=O)N3CCC(c4ccccc4)CC3)cc2N2[C@@H]3CC[C@H]2CN(C(=O)c2ccc(F)cc2Cl)C3)c1` [compound 082, (2-chloro-4-fluoro-phenyl)-[(1S,5R)-8-[2-(1-methylimidazol-4-yl)-5-[(4-phenyl-1-piperidyl)sulfonyl]phenyl]-3,8-diazabicyclo[3.2.1]octan-3-yl]methanone] showed an EC50 of 1000 to 10000 nM. For `O=C(c1cc(F)c(F)cc1Cl)N1C[C@H]2CC[C@@H](C1)N2c1cc(S(=O)(=O)N2CCC(c3ccccc3)CC2)cc2c1OCC2` [compound 061, (2-chloro-4,5-difluoro-phenyl)-[(1S,5R)-8-[5-[(4-phenyl-1-piperidyl)sulfonyl]-2,3-dihydrobenzofuran-7-yl]-3,8-diazabicyclo[3.2.1]octan-3-yl]methanone] the value was less than 1000 nM; for `COc1ccc(S(=O)(=O)N2CCC(c3ccccc3)CC2)cc1N1[C@@H]2CC[C@H]1CN(C(=O)c1cc(F)c(F)cc1Cl)C2` [compound 049, (2-chloro-4,5-difluoro-phenyl)-[(1S,5R)-8-[2-methoxy-5-[(4-phenyl-1-piperidyl)sulfonyl]phenyl]-3,8-diazabicyclo[3.2.1]octan-3-yl]methanone], less than 1000 nM; for `CN(C)c1ccc(S(=O)(=O)N2CCC(c3ccccc3)CC2)cc1N1[C@@H]2CC[C@H]1CN(C(=O)c1ccc(F)cc1Cl)C2` [compound 121, (2-chloro-4-fluoro-phenyl)-[(1S,5R)-8-[2-(dimethylamino)-5-[(4-phenyl-1-piperidyl)sulfonyl]phenyl]-3,8-diazabicyclo[3.2.1]octan-3-yl]methanone], less than 1000 nM. Consider `COc1ccc(S(=O)(=O)N2CCCC2)cc1N1[C@@H]2CC[C@H]1CN(C(=O)c1ccc(F)cc1Cl)C2` [compound 004, (2-chloro-4-fluoro-phenyl)-[(1S,5R)-8-(2-methoxy-5-pyrrolidin-1-ylsulfonyl-phenyl)-3,8-diazabicyclo[3.2.1]octan-3-yl]methanone], for which the EC50 was in the range of 1000 to 10000 nM. Regarding `O=C(c1ccc(F)cc1Cl)N1C[C@H]2CC[C@@H](C1)N2c1cc(S(=O)(=O)N2CCC(c3ccccc3)CC2)ccc1OCCO` [compound 076], the EC50 was less than 1000 nM. For `O=C(c1ccc(F)cc1Cl)N1C[C@H]2CC[C@@H](C1)N2c1cc(S(=O)(=O)N2CCC(c3ccccc3)CC2)ccc1-c1c[nH]cn1` [compound 081], the EC50 was less than 1000 nM. Molecule `O=C(c1ccc(F)cc1Cl)N1C[C@H]2CC[C@@H](C1)N2c1cc(S(=O)(=O)N2CCC(c3ccc(F)cc3)CC2)cc(F)c1O` [compound 084, (2-chloro-4-fluoro-phenyl)-[(1S,5R)-8-[3-fluoro-5-[[4-(4-fluorophenyl)-1-piperidyl]sulfonyl]-2-hydroxy-phenyl]-3,8-diazabicyclo[3.2.1]octan-3-yl]methanone] gave an EC50 of less than 1000 nM. For the molecule `COc1ccc(S(=O)(=O)N2CCN(c3ccccc3)CC2)cc1N1[C@@H]2CC[C@H]1CN(C(=O)c1ccc(F)cc1Cl)C2` [compound 012, (2-chloro-4-fluoro-phenyl)-[(1S,5R)-8-[2-methoxy-5-(4-phenylpiperazin-1-yl)sulfonyl-phenyl]-3,8-diazabicyclo[3.2.1]octan-3-yl]methanone], the concentration for a half-maximal effect (EC50) was less than 1000 nM.

`COc1ccc(S(=O)(=O)N2CCC(CCc3ccccc3)CC2)cc1N1[C@@H]2CC[C@H]1CN(C(=O)c1ccc(F)cc1Cl)C2` [compound 010, (2-chloro-4-fluoro-phenyl)-[(1S,5R)-8-[2-methoxy-5-[[4-(2-phenylethyl)-1-piperidyl]sulfonyl]phenyl]-3,8-diazabicyclo[3.2.1]octan-3-yl]methanone]: the EC50 is less than 1000 nM. `CCCN(C)S(=O)(=O)c1ccc(OCC)c(N2[C@@H]3CC[C@H]2CN(C(=O)c2ccc(F)cc2Cl)C3)c1` [compound 029] returned an EC50 of 1000 to 10000 nM. As to `COc1ccc(S(=O)(=O)N2CCC(=Cc3ccccc3)CC2)cc1N1[C@@H]2CC[C@H]1CN(C(=O)c1cc(F)c(F)cc1Cl)C2` [compound 053, [(1S,5R)-8-[5-[(4-benzylidene-1-piperidyl)sulfonyl]-2-methoxy-phenyl]-3,8-diazabicyclo[3.2.1]octan-3-yl]-(2-chloro-4,5-difluoro-phenyl)methanone], the EC50 was less than 1000 nM. For `CN(C(C)(C)C)S(=O)(=O)c1cc(Cl)c(OCc2ccccc2)c(N2[C@@H]3CC[C@H]2CN(C(=O)c2ccc(F)cc2Cl)C3)c1` [compound 136, 4-benzyloxy-N-tert-butyl-3-chloro-5-[(1S,5R)-3-(2-chloro-4-fluoro-benzoyl)-3,8-diazabicyclo[3.2.1]octan-8-yl]-N-methyl-benzenesulfonamide] the value was less than 1000 nM. Then `CCCN(C)S(=O)(=O)c1ccc(OC)c(N2[C@@H]3CC[C@H]2CN(C(=O)c2ccc(F)cc2Cl)C3)c1` [compound 003], with 1000 to 10000 nM. Regarding `COc1ccc(S(=O)(=O)N2CCC(Cc3ccccc3)CC2)cc1N1CCN(C(=O)c2ccc(F)cc2Cl)CC1C` (racemic) [compound 019, (2-chloro-4-fluoro-phenyl)-[rac-(3S)-4-[5-[(4-benzyl-1-piperidyl)sulfonyl]-2-methoxy-phenyl]-3-methyl-piperazin-1-yl]methanone], the EC50 was less than 1000 nM. In turn, `O=C(c1ccc(F)cc1Cl)N1C[C@H]2CC[C@@H](C1)N2c1cc(S(=O)(=O)N2CCC(F)CC2)cc(Cl)c1O` [compound 097, (2-chloro-4-fluoro-phenyl)-[(1S,5R)-8-[3-chloro-5-[(4-fluoro-1-piperidyl)sulfonyl]-2-hydroxy-phenyl]-3,8-diazabicyclo[3.2.1]octan-3-yl]methanone] showed an EC50 of less than 1000 nM. Consider `O=C(c1ccc(F)cc1Cl)N1C[C@H]2CC[C@@H](C1)N2c1cc(S(=O)(=O)N2CCN(CCc3ccc(Cl)cc3)CC2)ccc1OCCO` [compound 078, (2-chloro-4-fluoro-phenyl)-[(1S,5R)-8-[5-[4-[2-(4-chlorophenyl)ethyl]piperazin-1-yl]sulfonyl-2-(2-hydroxyethoxy)phenyl]-3,8-diazabicyclo[3.2.1]octan-3-yl]methanone], for which the EC50 is less than 1000 nM. The molecule `N#Cc1ccc(S(=O)(=O)N2CCC(c3ccccc3)CC2)cc1N1[C@@H]2CC[C@H]1CN(C(=O)c1ccc(F)cc1Cl)C2` [compound 125] had a half-maximal effective concentration (EC50) of less than 1000 nM.

The record behind these values is patent publication US20260022096A1, “NOVEL SULFONAMIDES AND THEIR USE AS NEUROPROTECTIVE AND/OR NEURORESTORATIVE AGENTS” (GENECODE, priority 2022, published 2026).
